Assay results as given in patent US7541463B2, “Sulfur-containing naphthalimide derivatives” (East China University of Science and Technology, priority 2003, dated 2009).

Assays:
[1] = system: human lung adenocarcinoma cell A-549; test: Growth inhibition of A-549 cells, SRB protein staining assay; type: cell-based; conditions: read-out: Growth inhibition effect to A-549 cell strain; for inhibition at 100 µM: A549, 10^−4 M; for inhibition at 10 µM: A549, 10^−5 M; for inhibition at 1 µM: A549, 10^−6 M; for inhibition at 0.1 µM: A549, 10^−7 M; for inhibition at 0.01 µM: A549, 10^−8 M
Procedure: (§1) The cell growth inhibition of mice leukemia cell P388 was evaluated by MTT (microculture tetrozolium) assay, while the cell growth inhibition of human lung adenocarcinoma cell A-549 was evaluated by SRB (Sulforhodamine B) protein staining assay.
The procedure of SRB assay was as follows: appropriate amount of cells in log phase were seeded in 96-well plates according to the growing rate (90 ul/well). After cultured for 24 h, cells were exposed to serial dilutions of drugs in triplicate (10 ul/well). In addition, control wells of normal saline in corresponding concentrations and zeroing wells without cell were set. The cells were incubated in 5% CO2 humidified incubator at 37° C. After 72 h, the medium was removed and cells were fixed with cold 10% trichloric acid (TCA) at 4° C. for 1 h. The plates were washed with distilled water 5 times, and stained in room temperature with 4 mg/ml SRB (Sigma, diluted with 1% glacial acetic acid, 100 ul/well) for 15 minutes after air drying. SRB was then washed with 1% acetic acid 5 times. Plates were dried, followed by adding 150 ul/well Tris solution. Absorbance was measured at […] using a multiwell spectrophotometer. The inhibition effect of the compounds in test (percentage of growth inhibition) was calculated for each well: % inhibition=(A540control cells−A540treated cells)/A540control cells×100%.
(§2) The cell lines used were mice leukemia cell P388, human leukemia cell MOLT-4, human lung adenocarcinoma cell A-549, human gastric adenocarcinoma SGC-7901, human hepatocellular carcinoma BEL-7402 and human embryonal fibroblast WI-38 (commerially available from ATCC).
(§3) The exposure time to compounds was 48 h-72 h.

mice leukemia cell P388 = test: Growth inhibition of P388 cells, MTT assay; type: cell-based; conditions: Mus musculus, read-out: Growth inhibition effect to P388 cell strain; for inhibition at 100 µM: 10^−4 M; for inhibition at 10 µM: 10^−5 M; for inhibition at 1 µM: 10^−6 M; for inhibition at 0.1 µM: 10^−7 M; for inhibition at 0.01 µM: 10^−8 M
Procedure: as §1
The procedure of MTT assay was as follows: appropriate amount of cells in log phase were seeded in 96-well plates (6000 cells/well, 15000 cells/well, 90ul/well) according to the growing rate. After cultured for 24 h, cells were exposed to serial dilutions of drugs in triplicate (10 ul/well). In addition, wells without cell, and wells without cell but with serial dilutions of drugs in case of using a colored-drug were set for zeroing. Then, the cells were cultured in 5% CO2 humidified incubator at 37° C. for 48 h. After treatment of drugs for 48 h, 20ul MTT (Sigma) which was diluted by normal saline to the concentration of 5 mg/ml was added to each well, 50ul/well 10%SDS-5% isobutanol-0.01% mol/LHCl was added after 4 h. After cultured overnight, absorbance was measured at 570 nm using a multiwell spectrophotometer. The inhibition effect of the compounds in test (percentage of growth inhibition) was calculated for each well: % inhibition=(OD570control cells−OD570treated cells)/OD570control cells×100%.
as §2, §3

| Structure (SMILES) | inhibition at 100 µM [1] [%] | inhibition at 10 µM [1] [%] | inhibition at 1 µM [1] [%] | inhibition at 0.1 µM [1] [%] | inhibition at 0.01 µM [1] [%] | melting point [°C] | inhibition at 100 µM (mice leukemia cell P388) [%] | inhibition at 10 µM (mice leukemia cell P388) [%] | inhibition at 1 µM (mice leukemia cell P388) [%] | inhibition at 0.1 µM (mice leukemia cell P388) [%] | inhibition at 0.01 µM (mice leukemia cell P388) [%] |
| --- | --- | --- | --- | --- | --- | --- | --- | --- | --- | --- | --- |
| O=c1c2ccc3sc4ccccc4c4ccc(c(=O)n1CCN1CCNCC1)c2c34 [compound 3, N-(2′-piperazinylethyl)benzo[k, l]thioxanthene-3,4-dicarboximide] | 78.6 | 92.4 | 69.8 | 4.7 | 0 | 286 to 287 | 100 | 100 | 22.2 | 0 | 0 |
| CN(C)CCN1C(=O)c2cccc3c2c(cc2nc(-c4ccccc4)sc23)C1=O [compound 5, N-(N′,N′-dimethylaminoethyl)-4H, 6H-9-phenyl-benzo[de]thiazol[5,4-g]isoquinoline-4,6-diketone] | 94.8 | 91.5 | 73 | 69.7 | 17.8 | 220 to 221 | 96.6 | 87.7 | 48.2 | 21.1 | 8.1 |
| Cc1ccc(-c2nc3cc4c5c(cccc5c3s2)C(=O)N(CCN(C)C)C4=O)cc1 [compound 6, N-(N′,N′-dimethylaminoethyl)-4H, 6H-9-p-methylphenyl-benzo[d, e]thiazol[5,4-g]isoquinoline4,6-diketone] | 95.8 | 92.3 | 52.7 | 31.5 | 7.1 | 202 to 203 | 96 | 74.7 | 47.7 | 29.3 | 13 |
| CN(C)CCN1C(=O)c2cccc3c2c(cc2nc(-c4ccccc4O)sc23)C1=O [compound 8, N-(N′,N′-dimethylaminoethyl)-4H, 6H-9-o-hydroxyphenyl-benzo[de]thiazol[5,4-g]isoquinoline-4,6-diketone] | 95.2 | 59.6 | 18.6 | 1 | 0.2 | 240 to 241 | 94.8 | 45.9 | 24.9 | 10 | 8.8 |
| CN(C)CCN1C(=O)c2cccc3c2c(cc2nc(-c4ccccc4Cl)sc23)C1=O [compound 10, N-(N′,N′-dimethylaminoethyl)-4H, 6H-9-o-chlorophenyl-benzo[de]thiazol[5,4-g]isoquinoline-4,6-diketone] | 91.4 | 93.4 | 94.5 | 35.7 | 12.5 | 235 to 237 | 96.1 | 89 | 64.6 | 40.5 | 7.3 |
| CCCCN1C(=O)c2cccc3c2c(cc2nnsc23)C1=O [compound 12, 5-butyl-4H, 6H-benzo[de]-1,2,3,-thiadiazol[5,4-g]isoquinoline4,6-diketone] | 69.4 | 75.2 | 0 | 2.3 | 0 | 177 to 179 | 54.3 | 23.2 | 17.1 | 12.3 | 15.6 |
| CN(C)CCCN1C(=O)c2cccc3c2c(cc2nnsc23)C1=O [compound 13, 5-(N′,N′-dimethylaminopropyl)-4H, 6H-benzo[de]-1,2,3,-thiadiazol[5,4-g]isoquinoline-4,6-diketone] | 95.9 | 94.4 | 90.6 | 0 | 0 | 101 to 102 | 99.5 | 89.2 | 19.8 | 11 | 14.5 |
| O=C1c2cccc3c2c(cc2nnsc23)C(=O)N1CCN1CCNCC1 [compound 14, 5-(2′-piperazinylethyl)-4H, 6H-benzo[de]-1,2,3,-thiadiazol[5,4-g]isoquinoline-4,6-diketone] | 95.9 | 96.1 | 87.3 | 60.2 | 4.4 | 145 to 146 | 98.8 | 90.8 | 16.8 | 13.7 | 18.4 |
| CCCCN1C(=O)c2cccc3c2c(cc2c4ccccc4sc32)C1=O [compound 15, N-butylbenzo[b] thieno[2,1-c]naphthalimide] | 94 | 45.6 | 0 | 0 | 0 | 170 to 172 | 51.8 | 26 | 3.2 | 3.2 | 5.8 |
| O=C1c2cccc3c2c(cc2c4ccccc4sc32)C(=O)N1CCN1CCNCC1 [compound 17, N-(2′-piperazinylethyl)benzo[b]thieno[2,1-c] naphthalimide] | 91.1 | 95.4 | 46.8 | 0 | 1.7 | 226 to 228 | 100 | 100 | 23.9 | 4.5 | 2 |
| CN(C)CCCN1C(=O)c2cccc3c2c(cc2c4ccccc4sc32)C1=O [compound 18, N-(N′,N′-dimethylaminopropyl)benzo[b]thieno[2,1-c] naphthalimide] | 95.3 | 96.9 | 81.1 | 47.2 | 1.7 | 168 to 170 | 100 | 100 | 29.8 | 17.1 | 5.5 |
| C=C(C)C(CN1C(=O)c2cccc3c2c(cc2c4ccccc4sc32)C1=O)OO (stereo not drawn) [compound 19] | – | – | – | – | – | 174 to 175 | – | – | – | – | – |
| C=C(C)C(O)CN1C(=O)c2cccc3c2c(cc2c4ccccc4sc32)C1=O (stereo not drawn) [compound 20] | – | – | – | – | – | 95 to 97 | – | – | – | – | – |
| CC(C)=CCN1C(=O)c2cccc3c2c(cc2c4ccccc4sc32)C1=O [compound 21] | – | – | – | – | – | 207 to 208 | – | – | – | – | – |
| C=C(C)C(CCn1c(=O)c2ccc3sc4ccccc4c4ccc(c1=O)c2c34)OO (stereo not drawn) [compound 22] | – | – | – | – | – | 210 to 211 | – | – | – | – | – |
| CC(C)=CCCn1c(=O)c2ccc3sc4ccccc4c4ccc(c1=O)c2c34 [compound 23] | – | – | – | – | – | 202 to 203 | – | – | – | – | – |
| O=C(ON1C(=O)c2cccc3cccc(c23)C1=S)c1ccccc1 [compound 24] | – | – | – | – | – | 189 to 190 | – | – | – | – | – |
| O=C(ON1C(=O)c2cccc3cccc(c23)C1=S)c1ccc(Cl)cc1 [compound 26] | – | – | – | – | – | 182 to 183 | – | – | – | – | – |
| O=C(ON1C(=O)c2cccc3cccc(c23)C1=S)c1ccc(Cl)cc1F [compound 30] | – | – | – | – | – | 208 to 210 | – | – | – | – | – |
| Cc1cc(C)cc(C(=O)ON2C(=O)c3cccc4cccc(c34)C2=S)c1 [compound 31] | – | – | – | – | – | 216 to 218 | – | – | – | – | – |
| COc1ccc(C(=O)ON2C(=O)c3cccc4cccc(c34)C2=S)cc1OC [compound 32] | – | – | – | – | – | 221 to 223 | – | – | – | – | – |
| O=C(ON1C(=O)c2cccc3cccc(c23)C1=S)c1ccco1 [compound 34] | – | – | – | – | – | 209 to 211 | – | – | – | – | – |
